Usually EC50 stands for the midpoint of the concentration-response curve.

The results in this text go back to PubChem BioAssay AID623861 (Sanford-Burnham Center for Chemical Genomics, 2012).

The experiment has as its system human iPSC single-cell survival, ATP luminescence. Put plainly: human iPSC survival promotion after dissociation – cell-based, luminescence, dose response (AID 623861).

Calls of active or inactive are those of the source.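 The calls were made as follows: active = compounds whose EC50 for boosting single-cell stem cell survival is at or below a set limit; inactive = the rest.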

In the case of `NC(=O)c1ccc(NC(=O)CCC(=O)c2cccs2)cc1`, the EC50 is 9.86 µM. The figure for `Cc1ccc(CCN2CC(C(=O)NCCCN3CCCCCC3)CC2=O)cc1` (stereo unspecified) is > 80 µM (inactive). For `O=C(NCCCN1CCCCCC1)c1ccc(CS(=O)(=O)Cc2ccccc2F)o1`, the EC50 is > 80 µM (inactive). Take `Cc1c(C(=O)OCC(=O)Nc2ccc(C(N)=O)cc2)cccc1[N+](=O)[O-]`: the EC50 was 60.8 µM (inactive). The figure for `CN1Cc2cnnn2-c2ccccc2C1C#N` (stereo unspecified) is 25.7 µM (inactive). With `O=C(Nc1ccncc1)c1ccccc1[N+](=O)[O-]`, the EC50 was 52.6 µM (inactive). `CCCn1c(SCc2ccccc2)nc2c1c(=O)[nH]c(=O)n2C`: the EC50 is > 80 µM (inactive). Regarding `O=C(NCCCN1CCCCCC1)C1CC(=O)N(CCc2ccccc2)C1` (stereo unspecified), the EC50 was > 80 µM (inactive). `C=C1C(C)C2C(Cc3ccccc3)NC(=O)C23OC(=O)/C=C/C(O)CCCC(C)C/C=C/C3C1O` (stereo unspecified): the EC50 was 11.5 µM. `CCOC1=C2[C@H](c3ccc(C)cc3)N(S(=O)(=O)c3ccc(C)cc3)C[C@H]2n2c(=O)n(-c3ccccc3)c(=O)n2C1`: the EC50 was > 80 µM (inactive). As to `COC(=O)[C@]1(Cc2ccccc2)N[C@H](CN(C)C(=O)Nc2ccccc2)[C@@H]2C(=O)N(C)C(=O)[C@@H]21`, the EC50 is > 80 µM (inactive). As to `Cn1c(Cl)c(/C=N/OC(=O)c2ccc(Cl)cc2)c2ccccc21`, the EC50 was > 80 µM (inactive). For `CCOCCCNC(=O)/C(C#N)=C/c1ccc([N+](=O)[O-])o1`, the EC50 is 53.1 µM (inactive). On to `C=C1C(=O)OC2C1CCC(C)=C1C(=O)C3OC3(C)C12` (stereo unspecified), for which the EC50 is > 80 µM (inactive). Regarding `CC(OC(=O)c1cccc(S(=O)(=O)N2CCN(C)CC2)c1)C(=O)Nc1ccc(C(N)=O)cc1` (stereo unspecified), the EC50 was 30.6 µM (inactive).

With `CC1(C)Cc2c(C#N)c(SCC(=O)c3ccccc3)nc(N3CCOCC3)c2CS1`, the EC50 was 13.4 µM.

Take `CN(Cc1ccccc1)C(=O)CN1CCN(S(=O)(=O)c2ccccc2F)CC1`: the EC50 is > 80 µM (inactive). With `CCCCCCC[C@@H](C/C=C/CCC(=O)N(C)C/C(=C/Cl)C/C(=C\C(=O)N1CC(OC)=CC1=O)OC)OC`, the EC50 was 1.11 µM. The figure for `Cc1nnc2n(C3CCCCC3)c(=O)c3c4c(sc3n12)COC(C)(C)C4` is 38.5 µM (inactive). With `COc1ccc2c(c1)c1ccc3c(c1n2C)C(=O)C=CC3=O` the figure was > 80 µM (inactive). In the case of `CCSc1cnn(-c2ccccc2)c(=O)c1Cl`, the EC50 was > 80 µM (inactive). With `CN1C2CCC1/C(=C/c1ccccn1)C(=O)/C2=C\c1ccccn1` the figure was 6.32 µM; with `O=C(NCC1CC1)c1ccc(-c2cn[nH]c2)c2ccoc12`, 13.1 µM. Regarding `Cn1cnnc1SCC(=O)c1ccc2c(c1)OCO2`, the EC50 was > 80 µM (inactive).

Turning to `O=C(C(O)c1ccc(Br)cc1)N1CCC(Nc2ccc3[nH]ncc3c2)CC1` (stereo unspecified), the EC50 is 6.68 µM. With `Cc1ccc2c(COC(=O)C3=COCCO3)cc(=O)oc2c1`, the EC50 was > 80 µM (inactive).

In the case of `CCN1C/C(=C\c2cccc([N+](=O)[O-])c2)C(=O)/C(=C/c2cccc([N+](=O)[O-])c2)C1`, the 50% effective concentration (EC50) is 20 µM. The figure for `CC(C)CC1Nc2ncnc(N3CCN(c4ccccc4)CC3)c2N(Cc2ccccc2)C1=O` (stereo unspecified) is > 80 µM (inactive).

In the case of `COc1ccccc1CC(=O)Nc1ccc(-c2noc(COc3cccc(C)c3C)n2)cc1`, the EC50 was > 80 µM (inactive).

Regarding `CC1(C)Cc2c(C#N)c(NCC3CCCO3)nc(-c3ccco3)c2CO1` (stereo unspecified), the EC50 is 15.6 µM. The figure for `CN1C/C(=C/c2cccnc2)C(=O)/C(=C/c2cccnc2)C1` is 13.7 µM. For `CC1CNCCN1S(=O)(=O)c1cccc2cnccc12` (stereo unspecified), the EC50 is > 80 µM (inactive). For `CCOC(=O)C(=O)/C(=C\N(C)C)c1onc(-c2c(F)cccc2Cl)c1C(=O)OC`, the EC50 is > 80 µM (inactive). In the case of `O=C(Nc1ccncc1)c1cc(S(=O)(=O)N2CCOCC2)ccc1Cl`, the EC50 was 20.4 µM (inactive). `Cc1ccc(OCCN2CCN(c3nc(NCc4ccco4)c4ccccc4n3)CC2)cc1`: the EC50 was 2.81 µM. `Cc1cc(C)c2nc(N3CCN(C)CC3)c(C#N)cc2c1`: the EC50 is > 80 µM (inactive). As for `CNc1nc(Cl)nc(NC(C)(C)C)n1`, the EC50 is > 80 µM (inactive).

As to `C=C1C(=O)O[C@@H]2C[C@@H](C)[C@@H]3C=CC(=O)[C@@]3(C)[C@@H](O)[C@H]12`, the EC50 is 7.88 µM. As for `OC(c1ccc(Cl)cc1)c1ncc(-c2cccc(C(F)(F)F)c2)[nH]1` (stereo unspecified), the EC50 was > 80 µM (inactive).

In the case of `COc1ccccc1Sc1nc(-c2ccccn2)ncc1OC`, the EC50 is 40.8 µM (inactive).

Consider `CC1C/C(=C/c2ccncc2)C(=O)/C(=C/c2ccncc2)C1` (stereo unspecified), for which the EC50 is 12.9 µM. Consider `COC(=O)CCSc1cc([N+](=O)[O-])cc2c1c(C1OCCS1)nn2-c1ccccc1` (stereo unspecified), for which the EC50 was 42.7 µM (inactive). `COCCNC(=O)c1ccc(-c2cn[nH]c2)c2ccoc12`: the EC50 is 11.2 µM. For `Cc1cccc(Cc2c(C)nc3c(C(=O)NCc4ccco4)cnn3c2C)c1`, the EC50 was > 80 µM (inactive). In the case of `CCCc1nc(SCC(=O)Nc2nc3c(s2)CCCC3)c2ccccc2n1`, the EC50 is > 80 µM (inactive). For the compound `O=C(Nc1cccnc1Cl)c1cccnc1Cl`, the EC50 was > 80 µM (inactive). The figure for `O=C1NCCN1c1ccccc1` is > 80 µM (inactive); for `CCS(=O)(=O)c1ncc(Cl)c(C(=O)Nc2ccc(S(=O)(=O)N3CCCC(C)C3)cc2)n1` (stereo unspecified) it is > 80 µM (inactive); for `Cc1c(Nc2cc(Cl)c3nonc3c2[N+](=O)[O-])c(=O)n(-c2ccccc2)n1C` it is > 80 µM (inactive). The figure for `CNc1cc(Cl)c2nonc2c1[N+](=O)[O-]` is 12.9 µM; for `O=C(Nc1ccncc1)c1ccccc1F` it is 41 µM (inactive).
